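Growth conditions: 96-well plates. Treatment: test compound, 48 hours, 5 concentrations. Analysis: linear interpolation between bracketing concentrations; unreached endpoints set to highest concentration. Abbreviation: GI50, concentration required for 50% inhibition of growth. TGI: total growth inhibition.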
Key:
Assay in all cases: inhibition of tumour cell growth, NCI panel, 48 h
IGROV1 ovarian = tested on: IGROV1 ovarian
SF-295 CNS = tested on: SF-295 CNS
CCRF-CEM leukemia = tested on: CCRF-CEM leukemia
OVCAR-3 ovarian = tested on: OVCAR-3 ovarian
A549 NSCLC = tested on: A549 NSCLC
NCI-H460 lung = tested on: NCI-H460 lung
SK-MEL-5 melanoma = tested on: SK-MEL-5 melanoma
SF-268 CNS = tested on: SF-268 CNS
SR leukemia = tested on: SR leukemia
MDA-MB-435 = tested on: MDA-MB-435

SMILES | TGI (IGROV1 ovarian) [µM] | TGI (SF-295 CNS) [µM] | TGI (CCRF-CEM leukemia) [µM] | TGI (OVCAR-3 ovarian) [µM] | TGI (A549 NSCLC) [µM] | TGI (NCI-H460 lung) [µM] | TGI (SK-MEL-5 melanoma) [µM] | TGI (SF-268 CNS) [µM] | TGI (SR leukemia) [µM] | GI50 (IGROV1 ovarian) [µM] | GI50 (SF-268 CNS) [µM] | GI50 (SF-295 CNS) [µM] | GI50 (SR leukemia) [nM] | GI50 (OVCAR-3 ovarian) [µM] | GI50 (A549 NSCLC) [µM] | GI50 (NCI-H460 lung) [µM] | GI50 (SK-MEL-5 melanoma) [µM] | GI50 (MDA-MB-435) [µM] | TGI (MDA-MB-435) [µM] | GI50 (CCRF-CEM leukemia) [nM]
O=C(Nc1cc(Cl)ccc1Cl)c1cc2ccccc2oc1=O | > 100 | > 100 | > 100 | > 100 | > 100 | > 100 | > 100 | – | – | – | – | – | – | – | – | – | – | – | – | –
CC1(C)OC2OC(/C=C/[N+](=O)[O-])C3OC(C)(C)OC3C2O1 (configuration not stated) | > 74.4 | 36 | > 75.7 | 34.7 | 42.6 | 32.4 | 31.7 | 39.5 | 33.6 | – | – | – | – | – | – | – | – | – | – | –
CCCCCCCCCCCCCCCCCCCCCCC(=O)N[C@H]1CCc2cc(OC)c(OC)c(OC)c2-c2ccc(SC)c(=O)cc21 | > 100 | > 100 | > 100 | 60.4 | > 100 | 83 | > 100 | > 100 | 81.9 | – | – | – | – | – | – | – | – | – | – | –
COC(=O)N1C=Cc2c(c(C)c3c([nH]c4ccccc43)c2C)C1C (configuration not stated) | 48.7 | 28.6 | 54.4 | 30.9 | 42.2 | 70.3 | 31.1 | 44.6 | – | – | – | – | – | – | – | – | – | – | – | –
Cc1cc2c(=O)cc(-c3ccncc3)oc2c(C(N)=O)c1C | > 100 | > 100 | > 100 | > 100 | > 100 | > 100 | – | > 100 | > 100 | – | – | – | – | – | – | – | – | – | – | –
O=C1C(=C2C(=O)c3ccccc3[N+]2=O)N([O-])c2ccccc21 | > 100 | > 100 | 63.8 | 39.7 | > 100 | 55.3 | 32.5 | 88.5 | 79.4 | – | – | – | – | – | – | – | – | – | – | –
CC(=O)NNc1nc(C)c(C(=O)NNC(=O)C(=O)Nc2ccc(C)cc2[N+](=O)[O-])s1 | > 100 | > 100 | > 100 | > 100 | > 100 | > 100 | > 100 | > 100 | > 100 | – | – | – | – | – | – | – | – | – | – | –
COc1ccc2c(c1)OCC1c3cc(OC)ccc3OC21 (configuration not stated) | > 100 | > 100 | – | > 100 | > 100 | > 100 | 86.1 | > 100 | 29.6 | 49.5 | 50.5 | 20.4 | 1440 | 44.2 | 89.1 | 32.1 | 28.4 | 50.8 | > 100 | –
CCCCP1(=O)C=CC(Cl)=C(C)C1 (configuration not stated) | > 100 | > 100 | > 100 | > 100 | > 100 | > 100 | > 100 | > 100 | – | – | – | – | – | – | – | – | – | – | – | –
C=CN(C(=O)N1CCN(c2cc3c(cc2F)c(=O)c(C(=O)O)cn3C2CC2)CC1)c1nc(-c2ccc(C)cc2)cs1 | > 100 | 7.11 | > 100 | > 100 | > 100 | > 100 | – | > 100 | > 100 | 3.42 | 4.02 | 2.59 | 2150 | 3.83 | 3.17 | 3.38 | – | – | – | 438
C=C1C(=O)O[C@H]2[C@H]1CC/C(COC(=O)NCc1ccc(Cn3c(=O)sn(CCCI)c3=O)cc1)=C\CC[C@@]1(C)O[C@@H]21 | 3.84 | 30.8 | 2.18 | 2.43 | 25.3 | 10.3 | 3.55 | 7.41 | – | 1.75 | 2.54 | 14.4 | – | 1.19 | 11.2 | 3.2 | 1.91 | 1.68 | 3.3 | 314
COc1cc(/C=C(\C#N)C(=O)c2ccccc2)cc(OC)c1OC | – | > 100 | > 100 | > 100 | > 100 | > 100 | > 100 | > 100 | > 100 | – | – | – | – | – | – | – | – | – | – | –
CC(=O)Nc1ccc(/C=C/C(=O)c2sc(-n3nc(-c4ccccc4)cc3-c3ccccc3)nc2C)cc1 | > 100 | > 100 | > 100 | > 100 | > 100 | > 100 | > 100 | > 100 | – | > 100 | > 100 | > 100 | – | > 100 | > 100 | > 100 | – | – | – | > 100000
Cc1cc(C)c(CNC(=O)c2cc(Cl)c3c(c2C)O[C@@](C)(C2CCC(N(C)C)CC2)O3)c(=O)[nH]1 (some centres not stated) | > 100 | > 100 | > 100 | > 100 | > 100 | > 100 | 63.2 | > 100 | – | 70.5 | 60.7 | > 100 | – | > 100 | 71.6 | > 100 | 21.3 | 58 | > 100 | 49900
CCc1cccc(CC)c1NC1=CC(=O)C(=O)c2ccccc21 | 28.9 | 28.3 | > 100 | 8.39 | 37.8 | 48.8 | 21.6 | 72.5 | > 100 | – | – | – | – | – | – | – | – | – | – | –
COc1cc(C(=O)N[C@@H]2CCCN(C)C2)ccc1Nc1ncc2c(n1)N(C1CCCC1)CC(C)(C)C(=O)N2C | 21.7 | 3.56 | 16.5 | 16.1 | 5.18 | 14.8 | 1.56 | 20.1 | 2.49 | 0.396 | 0.588 | 0.109 | 36.9 | 0.0442 | 0.0549 | 0.04 | 0.123 | – | – | 34.9
O=C(/C=C/c1c[nH]c2ccccc12)c1ccccc1O | 36.4 | 22.3 | – | 20.3 | 24.5 | 28.3 | – | 40 | – | – | – | – | – | – | – | – | – | – | 27.9 | –
O=P(c1ccccc1)(c1ccccc1)C1CC=C2CCCCCC2C1 (configuration not stated) | > 100 | > 100 | 61.5 | 50 | > 10 | > 100 | 46.1 | 66 | – | – | – | – | – | – | – | – | – | – | – | –

From PubChem BioAssay (NCI)
